Measurements: US20110146678A1, “PROCESS FOR IMPROVING CRYSTALLINITY” (priority 2008, published 2011)

Key:
Assay type in all cases: physicochemical
[1] = Aerosolisation efficiency of binary DPI formulations (0.4% w/w FP in lactose), NGI via Rotahaler; settings: binary DPI, Rotahaler 60 Lpm
Procedure: The aerosolization efficiency of samples 2, 3 and 4 of engineered FP were evaluated using binary formulations containing 0.4% w/w FP.
Each binary formulation contained 0.016 g FP and 3.984 g lactose (ML001, DMV-Fonterra, Vehgel, Netherlands) and was prepared by geometric mixing. Following this, the blend was subsequently prepared using a Turbula T2F (Willy A Bachofen A G, Basel, Switzerland) at 46 rpm for 45 minutes.
Following content uniformity testing, 12.5±1 mg of each blend was loaded into size 3 hydroxypropylmethyl cellulose capsules (HPMC, Shionogi Qualicaps S A, Basingstoke, UK). The capsules were stored at 44% RH for 24 h prior to in vitro performance testing.
(§1) Testing was performed using a Next Generation Impactor (NGI) with pre-separator, which was connected to a vacuum pump (GE Motors). Prior to testing, the pre-separator was filled with 15 ml of mobile phase and the cups of the NGI cups were coated with 1% v/v silicone oil in hexane to eliminate particle bounce.
For each experiment, four individual capsules of the same formulation were discharged into the NGI at 60 Lpm for 4 s via a Rotahaler (GSK, Ware, UK) DPI device. Additionally, blisters from a Flixotide Diskus (GSK, Ware, UK) were emptied and loaded into size 3 HPMS capsules and discharged into a NGI at 60 Lpm1 for 4 s via a Rotahaler. Following aerosolization, the NGI apparatus was dismantled and the inhaler, capsules and each part of the NGI was washed down into known volumes of HPLC mobile phase.
The mass of drug deposited on each part of the NGI was determined by HPLC. This protocol was repeated three times for each blend, following which, the mass median aerodynamic diameter (MMAD), geometric standard deviation (GSD), fine particle dose (FPD) and fine particle fraction of the emitted dose (FPFED) were determined. The FPD represented the mass of drug that was collected on stages 3-8 of the NGI.

[2] = Aerosolisation efficiency of combination DPI formulations FP/micronized SX 500/50, NGI via Rotahaler and Cyclohaler, incl. 1 month storage; settings: for % FPF under stressed storage conditions: 1 month at 25° C./75% RH; for FPF of FP compared with micronized sample: T=0, Cyclohaler; for FPF of FP compared with micronized sample / FPF of FP compared with other samples: 500/50 blend with micronized SX; for FPF of FP compared with other samples: T=0, Rotahaler
Procedure: The aerosolisation efficiency of samples 2, 3 and 4 of fluticasone propionate (FP) produced as described in Example 2 was assessed in combination dry powder inhaler (DPI) formulations containing micronized salmeterol xinafoate (SX) using a Rotahaler® unit dose DPI device (GSK, Ware, UK) and Cyclohaler® unit dose DPI device (TEVA Pharmaceuticals, Netherlands).
The aerosolization efficiency was evaluated in combination DPI formulations also containing micronized SX. Each combination formulation contained 0.16000 g FP (sample 2, 3 or 4), 0.02320 g SX and 3.8168 g lactose (ML001, DMV-Fonterra, Vehgel, Netherlands) and was prepared by geometric mixing. Following this, each blend was subsequently prepared using a Turbula T2F (Willy A Bachofen A G, Basel, Switzerland) at 46 rpm for 45 minutes. The blend strength of each combination formulation equated to 500 μg FP and 50 μg Salmeterol base. This matches the dose strength of Advair 500/50. A sample of Advair 500/50 was used as the micronized example. The aerolisation efficiency of four different formulations containing FP samples 2, 3, 4 or micronized FP was measured.
Following content uniformity testing, 12.5±0.5 mg of each blend was loaded into size 3 hydroxypropylmethyl cellulose capsules (HPMC, Shionogi Qualicaps S A, Basingstoke, UK). The capsules were stored at 44% RH for 24 h prior to in vitro performance testing.
as §1
For each experiment, two individual capsules of the same formulation were discharged into the NGI at 60 Lpm for 4 s via a Rotahaler (GSK, Ware, UK) and 90 Lpm for 2.8 s via a Cyclohaler (TEVA Pharmaceuticals, Netherlands) to ensure both devices were operated such that 4 kPa pressure drop was generated.
Additionally, blisters from a commercially available Advair 500/50 Diskus (GSK, USA) were emptied and 12.5 mg of formulation was transferred into size 3 HPMC capsules and discharged into a NGI at 60 Lpm for 4 s via a Rotahaler and at 90 Lpm for 2.8 s via a Cyclohaler.
Following aerosolization, the NGI apparatus was dismantled and the inhaler, capsules and each part of the NGI was washed down into known volumes of HPLC mobile phase. The mass of drug deposited on each part of the NGI was determined by HPLC. This protocol was repeated three times for each blend, following which, the fine particle dose (FPD) and fine particle fraction of the loaded dose (FPFLD) were determined. The FPD represented the mass of drug that was collected on stages 3-8 of the NGI.

[3] = Surface roughness by TappingMode AFM; settings: 1 μm×1 μm areas, SD in brackets; for Ra(± nm): mean surface roughness; for Rq(± nm): root mean square roughness
Procedure: The degree of corrugation and surface morphology of samples was quantified using AFM. The surface topography and roughness measurements of particles of this invention were investigated using a Nanoscope IIIa controller, a Multimode AFM and a J-type scanner (all DI, Santa Babara, Calif., USA). All AFM surface topography images were recorded in Tapping Mode operation, in which, imaging was conducted using TESP Olympus tips (Di, Cambridge, UK) at a scan rate of 1 Hz. Surface roughness measurements were analysed over a 1 μm×1 μm area. To quantify the variations in the surface properties of the crystal surfaces, the root-mean-squared surface roughness measurement (Rq) and the mean surface roughness (Ra) of the height deviations of the surface asperities were computed.
(§2) The surface roughness and surface area of micronized Fluticasone Propionate (FP), sample 3 of FP prepared by the current invention and sample 4 of FP, as described in Example 2, were determined using atomic force microscopy (AFM) and BET surface area analysis, respectively. The roughness of imaged areas was quantified using the mean (Ra) and root mean square (Rq) of the variations in the height of the imaged surface. Furthermore, the surface area of samples was determined by a five-point BET nitrogen adsorption analysis.
The surface topography of the FP samples was investigated with TappingMode™ atomic force microscopy (AFM) using a Multimode AFM, J-type scanner, Nanoscope IIIa controller (all from DI, Cambridge, UK) and a silicon tip (model number OMCL-AC240TS, Olympus, Japan) to image three randomly selected 1 μm×1 μm square areas on the surface of particles of each material with a resolution of 512×512 pixels and a scan rate of 1 Hz. The roughness of imaged areas was quantified using the mean (Ra) and root mean square (Rq) of the variations in the height of the imaged surface, as calculated by the AFM software using the following equations: […]
where np is the number of points in the image and yi is the distance of point i from the centre line.

[4] = Specific surface area by five-point BET nitrogen adsorption
Procedure: as §2, with “analysis. The specific surface areas of the FP samples were measured using a Gemini 2360 surface area analyser (Micromeritics Instrument Corporation, Norcross, USA). A five-point BET nitrogen adsorption analysis was carried out after degassing the samples for 24 hours in a FlowPrep 060 degasser (Micromeritics Instrument Corporation, Norcross, USA).” for “analysis.”

Row | SMILES | percentage fine particle fraction (% FPF) compared with micronized FP [1] | % FPF under stressed storage conditions [2] | FPF of FP compared with micronized sample [2] | FPF of FP compared with other samples [2] | Ra(± nm) [3] | Rq(± nm) [3] | Surface Area [4] | percentage fine particle fraction (% FPF) compared with micronized FP ([1]; listed as Samples 2)
1 | CCC(=O)O[C@]1(C(=O)SCF)[C@H](C)C[C@H]2[C@@H]3C[C@H](F)C4=CC(=O)C=C[C@]4(C)[C@@]3(F)[C@@H](O)C[C@@]21C [Sample 3, Fluticasone propionate] | significantly greater than that of micronized FP | not significantly affected | greater than the micronized sample | greater than sample 4 and the micronized sample | 53.79 (2.11) nm | 72.11 (1.35) nm | 10.79 m^2/g | –
2 | CCC(=O)O[C@]1(C(=O)SCF)[C@H](C)C[C@H]2[C@@H]3C[C@H](F)C4=CC(=O)C=C[C@]4(C)[C@@]3(F)[C@@H](O)C[C@@]21C [micronized FP, Fluticasone Propionate] | – | not significantly affected | – | – | 30.97 (12.25) nm | 45.07 (11.76) nm | 6.55 m^2/g | –
3 | CCC(=O)O[C@]1(C(=O)SCF)[C@H](C)C[C@H]2[C@@H]3C[C@H](F)C4=CC(=O)C=C[C@]4(C)[C@@]3(F)[C@@H](O)C[C@@]21C [Sample 4, fluticasone propionate, reference compound] | significantly lower % FPF than micronized FP | not significantly affected | greater than the micronized sample | poor performance | 11.20 (1.55) nm | 16.52 (3.13) nm | 7.49 m^2/g | –
4 | CCC(=O)O[C@]1(C(=O)SCF)[C@H](C)C[C@H]2[C@@H]3C[C@H](F)C4=CC(=O)C=C[C@]4(C)[C@@]3(F)[C@@H](O)C[C@@]21C [Sample 2, Fluticasone propionate] | – | not significantly affected | greater than the micronized sample | greater than sample 4 and the micronized sample | – | – | – | significantly greater than that of micronized FP
